Measured values from PubChem BioAssay AID1918998 (Molecular Pharmacology Branch, DTP, NCI, 2023).
pIC50: −log10 of the molar value. Several values for one entry are separate records, joined by “and”; a condition that tells them apart may be missing. Equal entries are not always repeated.

System: 521955-158-R2-J5-PDC complex spheroid growth
Test: Anticancer human tumor 521955-158-R2-J5-PDC patient-derived pancreatic carcinoma cell line growth inhibition [AhR]
Conditions: for viability, T/C: stronger effect = lower value
In short: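 Complex tumor spheroids co-cultured with HUVEC and human MSC stroma; AhR antagonists tested in combination with standard-of-care and investigational agents. Top concentration at or near clinical Cmax (else 10 microM), half-log dilutions; growth expressed as percent test/control.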

[1] = curve of first compound, second compound 0.1 µM
[2] = curve of first compound, second compound 0.316 µM
[3] = curve of first compound, second compound 1 µM
[4] = curve of first compound, second compound 3.16 µM
[5] = curve of first compound, second compound 10 µM
[6] = second compound 0.1 µM, first compound 0.0316 µM
[7] = second compound 0.1 µM, first compound 0.1 µM
[8] = second compound 0.1 µM, first compound 0.316 µM
[9] = second compound 0.1 µM, first compound 1 µM
[10] = second compound 0.1 µM, first compound 3.16 µM
[11] = second compound 0.1 µM, first compound 10 µM
[12] = second compound 0.316 µM, first compound 0.0316 µM
[13] = second compound 0.316 µM, first compound 0.1 µM
[14] = second compound 0.316 µM, first compound 0.316 µM
[15] = second compound 0.316 µM, first compound 1 µM
[16] = second compound 0.316 µM, first compound 3.16 µM
[17] = second compound 0.316 µM, first compound 10 µM
[18] = second compound 1 µM, first compound 0.0316 µM
[19] = second compound 1 µM, first compound 0.1 µM
[20] = second compound 1 µM, first compound 0.316 µM
[21] = second compound 1 µM, first compound 1 µM
[22] = second compound 1 µM, first compound 3.16 µM
[23] = second compound 1 µM, first compound 10 µM
[24] = second compound 3.16 µM, first compound 0.0316 µM
[25] = second compound 3.16 µM, first compound 0.1 µM
[26] = second compound 3.16 µM, first compound 0.316 µM
[27] = second compound 3.16 µM, first compound 1 µM
[28] = second compound 3.16 µM, first compound 3.16 µM
[29] = second compound 3.16 µM, first compound 10 µM
[30] = second compound 10 µM, first compound 0.0316 µM
[31] = second compound 10 µM, first compound 0.1 µM
[32] = second compound 10 µM, first compound 0.316 µM
[33] = second compound 10 µM, first compound 1 µM
[34] = second compound 10 µM, first compound 3.16 µM
[35] = second compound 10 µM, first compound 10 µM
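For viability, T/C in this document: spheroids mix tumor cells with HUVEC endothelium and human MSC stroma; luminescence taken as viability surrogate after a week of drug exposure.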

In the case of `Nc1ccccc1NC(=O)c1ccc(CNC(=O)OCc2cccnc2)cc1` + Cc1ccccc1N=Nc1ccc(NC(=O)c2ccnn2C)c(C)c1, the pIC50 [1] was 5.30, the pIC50 [2] was 5.28 and the pIC50 [3] was 5.25. The pIC50 [4] was 5.16, the pIC50 [5] was 5.14 and the viability, T/C [6] was 121%. For the same compound, the viability, T/C [7] was 129%, the viability, T/C [8] was 130% and the viability, T/C [9] was 104%. For the same compound, the viability, T/C [10] was 64.6%, the viability, T/C [11] was 29.6% and the viability, T/C [12] was 95.2%. The viability, T/C [13] was 137%, the viability, T/C [14] was 147% and the viability, T/C [15] was 109%. The viability, T/C [16] was 69.8%, the viability, T/C [17] was 26.4% and the viability, T/C [18] was 135%. The viability, T/C [19] was 154%, the viability, T/C [20] was 155% and the viability, T/C [21] was 116%. It also gave a viability, T/C [22] of 67.5%, a viability, T/C [23] of 34.4% and a viability, T/C [24] of 141%. For the same compound, the viability, T/C [25] was 164%, the viability, T/C [26] was 154% and the viability, T/C [27] was 131%. For the same compound, the viability, T/C [28] was 71.4%, the viability, T/C [29] was 40% and the viability, T/C [30] was 165%. It also gave a viability, T/C [31] of 168%, a viability, T/C [32] of 152% and a viability, T/C [33] of 129%. It also gave a viability, T/C [34] of 78.1% and a viability, T/C [35] of 38.7%.
With `CC1(C)CCC(CN2CCN(c3ccc(C(=O)NS(=O)(=O)c4ccc(NCC5CCOCC5)c([N+](=O)[O-])c4)c(Oc4cnc5[nH]ccc5c4)c3)CC2)=C(c2ccc(Cl)cc2)C1` + Cc1cncc(-c2nc(NCCc3c[nH]c4ccccc34)c3ncn(C(C)C)c3n2)c1 the pIC50 [1] was under 5.00, the pIC50 [2] was under 5.00 and the pIC50 [3] was under 5.00. The pIC50 [4] was under 5.00, the pIC50 [5] was under 5.00 and the viability, T/C [6] was 110%. For the same compound, the viability, T/C [7] was 111%, the viability, T/C [8] was 102% and the viability, T/C [9] was 104%. For the same compound, the viability, T/C [10] was 92.8%, the viability, T/C [11] was 74.7% and the viability, T/C [12] was 104%. It also gave a viability, T/C [13] of 109%, a viability, T/C [14] of 119% and a viability, T/C [15] of 105%. The viability, T/C [16] was 99.9%, the viability, T/C [17] was 79.5% and the viability, T/C [18] was 111%. It also gave a viability, T/C [19] of 124%, a viability, T/C [20] of 121% and a viability, T/C [21] of 111%. For the same compound, the viability, T/C [22] was 111%, the viability, T/C [23] was 76.3% and the viability, T/C [24] was 146%. The viability, T/C [25] was 123%, the viability, T/C [26] was 133% and the viability, T/C [27] was 120%. The viability, T/C [28] was 113%, the viability, T/C [29] was 94.9% and the viability, T/C [30] was 148%. It also gave a viability, T/C [31] of 147%, a viability, T/C [32] of 138% and a viability, T/C [33] of 156%. It also gave a viability, T/C [34] of 118% and a viability, T/C [35] of 102%.
`CC1(C)CCC(CN2CCN(c3ccc(C(=O)NS(=O)(=O)c4ccc(NCC5CCOCC5)c([N+](=O)[O-])c4)c(Oc4cnc5[nH]ccc5c4)c3)CC2)=C(c2ccc(Cl)cc2)C1` + Cc1ccccc1N=Nc1ccc(NC(=O)c2ccnn2C)c(C)c1 was tested, and the pIC50 [1] was under 5.00, the pIC50 [2] was under 5.00 and the pIC50 [3] was under 5.00. For the same compound, the pIC50 [4] was under 5.00, the pIC50 [5] was under 5.00 and the viability, T/C [6] was 114%. For the same compound, the viability, T/C [7] was 140%, the viability, T/C [8] was 96.5% and the viability, T/C [9] was 102%. The viability, T/C [10] was 104%, the viability, T/C [11] was 103% and the viability, T/C [12] was 110%. The viability, T/C [13] was 99.9%, the viability, T/C [14] was 116% and the viability, T/C [15] was 108%. For the same compound, the viability, T/C [16] was 107%, the viability, T/C [17] was 96% and the viability, T/C [18] was 120%. It also gave a viability, T/C [19] of 144%, a viability, T/C [20] of 133% and a viability, T/C [21] of 116%. For the same compound, the viability, T/C [22] was 98.8%, the viability, T/C [23] was 94.5% and the viability, T/C [24] was 135%. It also gave a viability, T/C [25] of 155%, a viability, T/C [26] of 165% and a viability, T/C [27] of 119%. It also gave a viability, T/C [28] of 130%, a viability, T/C [29] of 84.6% and a viability, T/C [30] of 166%. For the same compound, the viability, T/C [31] was 162%, the viability, T/C [32] was 158% and the viability, T/C [33] was 151%. For the same compound, the viability, T/C [34] was 108% and the viability, T/C [35] was 72.6%.
For `COc1cc(Nc2ncc3c(n2)-c2ccc(Cl)cc2C(c2c(F)cccc2OC)=NC3)ccc1C(=O)O`, the viability, T/C (compound 0.0316 µM) was 77.4% and 67.8% and 86.3%, the viability, T/C (compound 0.1 µM) was 85.5% and 81.5% and 77.1% and the viability, T/C (compound 0.316 µM) was 58.4% and 76.3% and 50%. The viability, T/C (compound 1 µM) was 57.4% and 60% and 62%, the viability, T/C (compound 3.16 µM) was 82.1% and 66.4% and 67% and the viability, T/C (compound 10 µM) was 66.9% and 47.4% and 49.2%. For the same compound, the pIC50 (curve of compound) was < 5.00 and 5.07.
